Results from the supplement of paper PMC3974653.
Structures can show the parent of a compound that is named as a salt.

System: MTT (mouse pheochromocytoma)
Test: IC50 of cell viability (ATP content)
Details: (24 or 48 h)
In short: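 MTT mouse pheochromocytoma cells, cultured overnight at 37°C, 5% CO2 in DMEM with 5% FBS and 1% horse serum, were exposed in white 1536-well plates to library compounds in DMSO at final 0.5 nM to 46 µM (8 concentrations) for 24 or 48 hrs. CellTiter-Glo luminescence was normalised to positive-control (100%) and DMSO (0%) wells. A four-parameter logistic fit gave the IC50.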

| Compound | IC50 of cell viability [µM] |
| --- | --- |
| CC1(C)SC2C(NC(=O)C(C(=O)[O-])c3ccccc3)C(=O)N2C1C(=O)[O-].[Na+].[Na+] (stereo not drawn) [CARBENICILLIN DISODIUM] | > 46 |
| CCN(CC)CCOCCOC(=O)C1(c2ccccc2)CCCC1 [CARBETAPENTANE] | > 46 |
| C[C@@](Cc1ccc(O)c(O)c1)(NN)C(=O)O [CARBIDOPA] | > 46 |
| NC(CSCC(=O)O)C(=O)O (stereo not drawn) [CARBOCISTEINE] | > 46 |
| C=CC(=O)O [CARBOMER 940] | > 46 |
| CO[C@@H]1[C@@H](OC2OC(C)C(OC3CC(C)(O)C(OC(=O)CC(C)C)C(C)O3)C(N(C)C)C2O)[C@@H](CC=O)C[C@@H](C)C(=O)C=CC2O[C@H]2C[C@@H](C)OC(=O)C[C@H]1OC(C)=O (stereo partly drawn) [CARBOMYCIN] | > 46 |
| [NH2][Pt]1([NH2])[O]C(=O)C2(CCC2)C(=O)[O]1 [CARBOPLATIN] | > 46 |
| OC(=O)C1=CC=C2[NH]C=C(CCCCN3CC\C(=C/C3)C4=CC=CC=C4)C2=C1 [CARMOXIROLUM] | > 46 |
| CCC(=O)c1ccc2c(c1)N(CCCN1CCN(CCO)CC1)c1ccccc1S2 [CARPHENAZINE MALEATE] | > 46 |
| CC(C(=O)O)c1ccc2c(c1)[nH]c1ccc(Cl)cc12 (stereo not drawn) [CARPROFEN] | > 46 |
| COC(=O)CCC[N+](C)(C)C [CARPRONIUM CHLORIDE] | > 46 |
| NC(=O)OC[C@@H]1[C@H](NC(=O)/C(=N/OCC(=O)[O-])c2csc(N)n2)C(=O)N1S(=O)(=O)[O-] [CARUMONAM SODIUM] | > 46 |
| COc1ccccc1OCCNCC(O)COc1cccc2[nH]c3ccccc3c12.O=C(O)C(O)C(O)C(=O)O (stereo not drawn) [CARVEDILOL TARTRATE] | > 46 |
| N[S+](=O)([O-])c1ccc(C(=O)O)cc1 [CARZENIDUM] | > 46 |
| N[C@@H](C(=O)N[C@H]1[C@H]2SC\C(=C(/N2C1=O)C(O)=O)CSC3=C[NH]N=N3)C4=CC=C(O)C=C4 [CEFATRIZINE] | > 46 |
| C=CC1=C(C(=O)O)N2C(=O)C(NC(=O)/C(=N\O)c3csc(N)n3)C2SC1 (stereo not drawn) [CEFDINIR] | > 46 |
| CO/N=C(\C(=O)NC1C(=O)N2C(C(=O)OCOC(=O)C(C)(C)C)=C(/C=C\c3scnc3C)CSC12)c1csc(N)n1 (stereo not drawn) [CEFDITORIN PIVOXIL] | > 46 |
| CO/N=C(\C(=O)N[C@@H]1C(=O)N2C(C(=O)OCOC(=O)C(C)(C)C)=C(C)CS[C@H]12)c1csc(N)n1 [CEFETAMET PIVOXIL HCl] | > 46 |
| CO/N=C(/C(=O)N[C@@H]1C(=O)N2C(C(=O)O)=C(CSc3nnnn3C)CS[C@H]12)c1csc(N)n1 [CEFMENOXIME HYDROCHLORIDE] | > 46 |
| CO[C@@]1(NC(=O)CSC[C@@H](N)C(=O)O)C(=O)N2C(C(=O)O)=C(CSc3nnnn3C)CS[C@@H]21 [CEFMINOX SODIUM] | > 46 |
| O=C([O-])C1=C(CSc2nnnn2CS(=O)(=O)[O-])CS[C@@H]2[C@H](NC(=O)[C@H](O)c3ccccc3)C(=O)N12 [CEFONICID SODIUM] | > 46 |
| [Na+].CCN1CCN(C(=O)NC(C(=O)NC2C3SC\C(=C(/N3C2=O)C([O-])=O)CSC4=NN=N[N]4C)C5=CC=C(O)C=C5)C(=O)C1=O (stereo not drawn) [CEFOPERAZONE SODIUM] | > 46 |
| CO/N=C(/C(=O)N[C@@H]1C(=O)N2C(C(=O)O)=C(C[n+]3ccc(N)n3CCO)CS[C@H]12)c1csc(N)n1 [CEFOSELIS SULFATE] | > 46 |
| CO/N=C(/C(=O)N[C@@H]1C(=O)N2C(C(=O)[O-])=C(C[n+]3ccn4ncccc43)CS[C@H]12)c1nsc(N)n1 [CEFOZOPRAN HYDROCHLORIDE] | > 46 |
| Cc1cc(O)c(C(=O)N[C@@H](C(=O)N[C@@H]2C(=O)N3C(C(=O)O)=C(CSc4nnnn4C)CS[C@H]23)c2ccc(O)cc2)cn1 [CEFPIRAMIDE SODIUM] | > 46 |
| CO/N=C(\C(=O)N[C@@H]1C(=O)N2C(C(=O)[O-])=C(C[n+]3cccc4c3CCC4)CS[C@H]12)c1csc(N)n1 [CEFPIROME SULPHATE] | > 46 |
| COCC1=C(C(=O)OC(C)OC(=O)OC(C)C)N2C(=O)[C@@H](NC(=O)/C(=N/OC)c3csc(N)n3)[C@H]2SC1 (stereo partly drawn) [CEFPODOXIME PROXETIL] | > 46 |

| Compound | IC50 of cell viability [µM] |
| --- | --- |
| CO/N=C(\C(=O)N[C@@H]1C(=O)N2C(C(=O)[O-])=C(C[n+]3cccc4c3CCCC4)CS[C@H]12)c1csc(N)n1 [CEFQUINOME sulfate] | > 46 |
| CO/N=C(\C(=O)N[C@@H]1C(=O)N2C(C(=O)O)=C(Cn3nnc(C)n3)CS[C@H]12)c1csc(N)n1 [CEFTERAM] | > 46 |
| [O-]C(=O)C/1=C(/CS[C@@H]2[C@H](NC(=O)C[N]3C=NN=N3)C(=O)N12)CSC4=NN=CS4 [CEFTEZOLE SODIUM] | > 46 |
| Nc1nc(/C(=C/CC(=O)O)C(=O)NC2C(=O)N3C(C(=O)O)=CCSC23)cs1 (stereo not drawn) [CEFTIBUTEN] | > 46 |
| CO/N=C(/C(=O)N[C@@H]1C(=O)N2C(C(=O)O)=C(CSC(=O)c3ccco3)CSC12)c1csc(N)n1 (stereo partly drawn) [CEFTIOFUR CRYSTALLINE FREE ACID] | > 46 |
| CO/N=C(/C(=O)N[C@@H]1C(=O)N2C(C(=O)[O-])=CCS[C@H]12)c1csc(N)n1 [CEFTIZOXIME SODIUM] | > 46 |
| CO/N=C(/C(=O)NC1C(=O)N2C(C(=O)[O-])=C(CSc3nc(=O)c([O-])nn3C)CSC12)c1csc(N)n1.O.O.O.[Na+].[Na+] (stereo not drawn) [CEFTRIAXONE SODIUM TRIHYDRATE] | > 46 |
| CO/N=C(/C(=O)N[C@@H]1C(=O)N2C(C(=O)OC(C)OC(C)=O)=C(COC(N)=O)CS[C@H]12)c1ccco1 (stereo partly drawn) [CEFUROXIME AXETIL] | > 46 |
| CCN(CC)C(=O)Nc1ccc(OC[C@H](O)CNC(C)(C)C)c(C(C)=O)c1 [CELIPROLOL HYDROCHLORIDE] | > 46 |
| OCC1O[C@H](O[C@H]2C(O)C(O)C(O)O[C@@H]2CO)C(O)C(O)C1O (stereo partly drawn) [CELLOBIOSE (D[+])] | > 46 |
| [O-]C(=O)C/1=C(CSC2C(NC(=O)CC3=CC=CS3)C(=O)N12)\C[N+]4=CC=CC=C4 (stereo not drawn) [CEPHALORIDINE] | > 46 |
| COc1ccc2cc1Oc1ccc(cc1)CC1c3c(cc4c(c3Oc3cc5c(cc3OC)CCN(C)C5C2)OCO4)CCN1C (stereo not drawn) [CEPHARANTHINE] | > 46 |
| COCc1c(C(C)C)nc(C(C)C)c(/C=C/[C@@H](O)C[C@@H](O)CC(=O)[O-])c1-c1ccc(F)cc1 [CERIVASTATIN SODIUM] | > 46 |
| CCOC(=O)OCC/C(SC(=O)OCC)=C(\C)N(C=O)Cc1cnc(C)nc1N [CETOTIAMINE HYDROCHLORIDE] | > 46 |
| CCCCCCCCCCCCCCCCO [CETYL ALCOHOL] | > 46 |
| O=[S+]([O-])(O)c1cc(I)c(O)c2ncccc12 [CHINIOFONUM] | > 46 |
| CN(C)CC[C@@](O)(c1ccccc1)c1ccccc1Cl [CHLOPHEDIANOL HYDROCHLORIDE] | > 46 |
| OC(O)C(Cl)(Cl)Cl [CHLORAL HYDRATE] | > 46 |
| OC[C@@H](O)[C@H]1O[C@@H]2OC(C(Cl)(Cl)Cl)O[C@H]2[C@H]1O (stereo partly drawn) [CHLORALOSUM] | > 46 |
| OCC(O)[C@H]1O[C@@H]2O[C@H](C(Cl)(Cl)Cl)O[C@@H]2[C@H]1O (stereo partly drawn) [CHLORALOSUM] | > 46 |
| O=C(O)CCCc1ccc(N(CCCl)CCCl)cc1 [CHLORAMBUCIL] | > 46 |
| O=C(NC(CO)C(O)c1ccc([N+](=O)[O-])cc1)C(Cl)Cl (stereo not drawn) [CHLORAMPHENICOL] | > 46 |
| CNC1=C[N+]([O-])=C(c2ccccc2)c2cc(Cl)ccc2N1 [CHLORDIAZEPOXIDE] | > 46 |
| C[N+](C)(C)CC[N+]1(C)Cc2c(Cl)c(Cl)c(Cl)c(Cl)c2C1 [CHLORISONDAMINE] | > 46 |
| Cc1ncsc1CCCl [CHLORMETHIAZOLE] | > 46 |
| CN1C(=O)CC[S+](=O)([O-])C1c1ccc(Cl)cc1 (stereo not drawn) [CHLORMEZANONE] | > 46 |
